Molecules are shown by their SMILES. Calls of active or inactive are those of the source. No cut-off for these calls is given here.

Data set [1] deals with Leishmania amazonensis. The data set is described as follows: Antileishmanial activity against Leishmania amazonensis MHOM/BR/77/LTB0016 assessed as inhibition of parasite growth incubated for 72 hrs by MTT assay. The format is functional, organism-based. To be noted: for IC50: MHOM/BR/77/LTB0016, 72 h. Background: Tetrazolium assays rely on reduction of a dye to a coloured formazan, in cell work by metabolically active cells.

For data set [2], the system named is Leishmania amazonensis. In words: Antileishmanial activity against Leishmania amazonensis Leishmania amazonensis MHOM/BR/77/LTB0016 intracellular amastigotes infected in BALB/c mouse macrophages incubated for 72 hrs by microscopy. The format is functional, organism-based. To be noted: MHOM/BR/77/LTB0016, 72 h.
A short description of data set [3]: Cytotoxicity against BALB/c mouse peritoneal macrophages infected with Leishmania amazonensis MHOM/BR/77/LTB0016 intracellular amastigotes assessed as cell viability at 12.5 to 100 uM after 72 hrs by resazurin staining based optical microscopy. To be noted: peritoneal macrophage cell. On the technique in general: Alamar Blue is a resazurin reagent that responds to reducing activity.

A short description of data set [4]: Cytotoxicity against BALB/c mouse peritoneal macrophages assessed as cell viability after 72 hrs by resazurin assay. The format is cell-based, Peritoneal macrophage cell. To be noted: read-out: LD50.
Data set [5] has as its system Leishmania amazonensis. In words: Antileishmanial activity against Leishmania amazonensis Leishmania amazonensis MHOM/BR/77/LTB0016 intracellular amastigotes infected in BALB/c mouse macrophages at 12.5 to 100 uM incubated for 72 hrs by optical microscopy. The format is functional, organism-based.
Data set [6] is described as follows: Selectivity index, ratio of LD50 for BALB/c mouse peritoneal macrophages to IC50 for Leishmania amazonensis MHOM/BR/77/LTB0016 intracellular amastigotes infected in BALB/c mouse peritoneal macrophages.

The term IC50 denotes the midpoint of a concentration-inhibition curve. As to `NC(=S)N/N=C/c1cc2c(cc1Cl)OCO2`, in the data set on Leishmania amazonensis [1], the inhibition entry is “Dose-dependent effect” and the IC50 was 244 µM.
As to `NC(=S)N/N=C/c1cc2c(cc1O)OCO2`, in the data set with Leishmania amazonensis [1], the inhibition result was “Dose-dependent effect” and the IC50 was determined as 53 µM.
Take `N#Cc1cc2c(cc1/C=N/NC(N)=S)OCO2`: the IC50 in the data set on Leishmania amazonensis [2] came out at 17 µM. Besides, the Activity result in data set [3] was “Non-toxic”. Also, the CC50 at 72 h in data set [4] is above 125 µM. In the data set on Leishmania amazonensis [5], the outcome was Active. The “Ratio LD50/IC50” value in data set [6] is reported as above 7.4. Further, in the data set on Leishmania amazonensis [1], the inhibition result was “Dose-dependent effect” and the half-inhibitory concentration (IC50) came to 16.4 µM.
Regarding `NC(=S)N/N=C/c1cc2c(cc1[N+](=O)[O-])OCO2`, in the data set on Leishmania amazonensis [1], the inhibition result is “Dose-dependent effect” and the IC50 amounted to 271 µM.
For `NC(=S)N/N=C/c1cc2c(cc1N)OCO2` the same measures were “Dose-dependent effect” and 119 µM.
For `NC(=S)N/N=C/c1cc2c(cc1Br)OCO2` the same measures were “Dose-dependent effect” and 202 µM.
For `NC(=S)N/N=C/c1ccc2c(c1)OCO2` the same measures were “Dose-dependent effect” and 79.7 µM.
In turn, `N=C(N)c1ccc(OCCCCCOc2ccc(C(=N)N)cc2)cc1` [PENTAMIDINE] had an IC50 in the data set on Leishmania amazonensis [2] of 1.9 µM. The CC50 at 72 h in data set [4] was 8.5 µM. For the same molecule, the “Ratio LD50/IC50” value in data set [6] stood at 4.5. Moreover, in the data set on Leishmania amazonensis [1], the inhibition entry was “Dose-dependent effect” and the IC50 stood at 4.8 µM.
For `NC(=S)N/N=C/c1cc2c(cc1NC(=O)CCl)OCO2`, in the data set on Leishmania amazonensis [1], the inhibition entry was “Dose-dependent effect” and the IC50 was 256 µM.
For `NC(=S)N/N=C/c1cc2c(cc1F)OCO2` the same measures were “Dose-dependent effect” and 197 µM.
For the molecule `NC(=S)N/N=C/c1cc2c(cc1I)OCO2`, in the data set with Leishmania amazonensis [2], the IC50 stood at 22 µM. The Activity entry in data set [3] is “Non-toxic”. In data set [4], the CC50 at 72 h is above 125 µM. Moreover, the outcome in the data set on Leishmania amazonensis [5] was Active. In addition, the “Ratio LD50/IC50” value in data set [6] was above 5.7. Also, in the data set on Leishmania amazonensis [1], the inhibition result is “Dose-dependent effect” and the IC50 was determined as 20.7 µM.

The record behind these values is ChEMBL document CHEMBL3632522, “Novel 3,4-methylenedioxyde-6-X-benzaldehyde-thiosemicarbazones: Synthesis and antileishmanial effects against Leishmania amazonensis” (Eur J Med Chem, 2015).
